Where “and” joins values, the source holds several entries; their conditions need not be identical. Equal values may be shown once.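 Briefly, cells in 96-well plates were exposed to five compound concentrations for 48 h, and endpoints were estimated by linear interpolation. GI50: concentration for 50% inhibition of growth. TGI is the concentration that stops growth completely.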

Some test systems named below: 786-0 renal; A549 NSCLC; HCT-116 colon; HT29 colon; NCI-H23 lung; OVCAR-8 ovarian; RXF 393 renal; SK-MEL-5 melanoma; SK-OV-3 ovarian; U251 CNS.
What all share (experiment): NCI anticancer screen, dose series, 48 h

On to `c1cc(C2O[C@H]3CCCN3[C@@H]2c2ccncc2)ccn1` (stereo partly drawn), for which the TGI with 786-0 renal, with A549 NSCLC, in the assay with HCT-116 colon, in the assay with HT29 colon, in the assay with NCI-H23 lung and in the assay with OVCAR-8 ovarian was greater than 100 µM throughout. Besides, the TGI with RXF 393 renal, in the assay on SK-MEL-5 melanoma, in the assay on SK-OV-3 ovarian and in the assay on U251 CNS was greater than 100 µM throughout.
For the molecule `Cc1cc(C)cc(NC(=O)CCC(=O)C2CCC/C2=N\NC(=O)C(=O)NN)c1` (stereo not drawn), the TGI in the assay on 786-0 renal, in the assay on A549 NSCLC, in the assay with HCT-116 colon, in the assay with HT29 colon, in the assay with NCI-H23 lung and in the assay with OVCAR-8 ovarian was greater than 100 µM each time. Besides, the TGI with RXF 393 renal, with SK-MEL-5 melanoma, with SK-OV-3 ovarian and in the assay on U251 CNS was greater than 100 µM in each case.
In the case of `Cc1cc(C)c2nc(Nc3nc(C)c(C)c(=O)[nH]3)nc(C)c2c1`, the GI50 in the assay on 786-0 renal is 2.4 µM; in the assay with A549 NSCLC it was 2.27 µM; in the assay with HCT-116 colon, 2.94 µM; with HT29 colon, 2.25 µM; in the assay on NCI-H23 lung, 3.44 µM; with OVCAR-8 ovarian it was 2.83 µM. For the same molecule, the GI50 in the assay with RXF 393 renal was 2.39 µM; with SK-MEL-5 melanoma, 3.06 µM; with SK-OV-3 ovarian, 2.5 µM; in the assay with U251 CNS it was 3.18 µM. Moreover, the TGI was determined as 12.3 µM in the assay on 786-0 renal; 5.92 µM in the assay with A549 NSCLC; 12.9 µM in the assay on HCT-116 colon; 6.04 µM in the assay with HT29 colon; 20.4 µM with NCI-H23 lung; 10.7 µM with OVCAR-8 ovarian. Moreover, the TGI was found to be 7.55 µM with RXF 393 renal, 11.8 µM with SK-MEL-5 melanoma, 10.3 µM in the assay with SK-OV-3 ovarian and 12 µM in the assay with U251 CNS.
With `Clc1cc(Cl)c2n[se]nc2c1`, the TGI in the assay on 786-0 renal, in the assay on A549 NSCLC, in the assay with HCT-116 colon, in the assay on HT29 colon, in the assay on NCI-H23 lung and in the assay on OVCAR-8 ovarian was greater than 100 µM in each case. Also, the TGI with RXF 393 renal, in the assay with SK-MEL-5 melanoma, in the assay on SK-OV-3 ovarian and with U251 CNS was greater than 100 µM in each case.
For `O=c1cc(N2CCOCC2)oc2c(-c3ccccc3)cccc12`, the GI50 with 786-0 renal was 3.13 µM; in the assay with A549 NSCLC, 6 µM; with HCT-116 colon it was 9.87 µM; in the assay with HT29 colon it was 5.27 µM; in the assay with NCI-H23 lung, 9.08 µM; in the assay with SK-MEL-5 melanoma it was 9.35 µM. The GI50 was 6.92 µM in the assay with SK-OV-3 ovarian and 11.1 µM in the assay on U251 CNS. For the same molecule, the TGI with 786-0 renal was > 37.9 µM and 46.7 µM; in the assay on A549 NSCLC, > 72.8 µM and 36.7 µM; with HCT-116 colon it was > 100 µM and 46.1 µM; in the assay on HT29 colon, 70.6 µM and 43.8 µM; in the assay with NCI-H23 lung it was greater than 100 µM; in the assay with OVCAR-8 ovarian, > 80.1 µM and 29.1 µM. Also, the TGI in the assay with RXF 393 renal was 13.4 µM and 13.6 µM; in the assay on SK-MEL-5 melanoma it was 22 µM; with SK-OV-3 ovarian, 62.4 µM and 60.9 µM; in the assay on U251 CNS, greater than 100 µM.
Turning to `CC(=N\O)/C(C)=N/O.CC(=N\O)/C(C)=N/O.[Pd]`, the GI50 in the assay on 786-0 renal is 3.31 µM; with A549 NSCLC, 7.03 µM; in the assay with HCT-116 colon it was 2.38 µM; in the assay on HT29 colon, 2.77 µM; with NCI-H23 lung, 2.6 µM; in the assay on OVCAR-8 ovarian, 1.84 µM. Further, the GI50 in the assay with RXF 393 renal was 3.42 µM; in the assay on SK-MEL-5 melanoma it was 1.81 µM; with SK-OV-3 ovarian, 7.62 µM; with U251 CNS, 5.12 µM. The TGI in the assay on 786-0 renal is 8.86 µM; with A549 NSCLC, greater than 10 µM; with HCT-116 colon, 4.79 µM; in the assay on HT29 colon, 7.99 µM; in the assay on NCI-H23 lung, 6.38 µM; in the assay on OVCAR-8 ovarian, 3.62 µM. For the same molecule, the TGI in the assay on RXF 393 renal was 7.42 µM; in the assay on SK-MEL-5 melanoma, 4.04 µM; with SK-OV-3 ovarian it was greater than 10 µM; in the assay on U251 CNS it was greater than 10 µM.
Turning to `O=C(O)CSc1ccn(Cc2ccccc2)c1`, the TGI with 786-0 renal, in the assay with A549 NSCLC, in the assay with HCT-116 colon, in the assay on HT29 colon, with NCI-H23 lung and with OVCAR-8 ovarian was greater than 100 µM throughout. Also, the TGI in the assay on RXF 393 renal, with SK-MEL-5 melanoma, with SK-OV-3 ovarian and in the assay with U251 CNS was greater than 100 µM in each case.
With `O=c1c2ccccc2oc2nccnc12`, the TGI with 786-0 renal, in the assay with A549 NSCLC, in the assay with HCT-116 colon, with HT29 colon, in the assay on NCI-H23 lung and with OVCAR-8 ovarian was greater than 100 µM throughout. For the same molecule, the TGI in the assay on RXF 393 renal, with SK-MEL-5 melanoma, in the assay with SK-OV-3 ovarian and in the assay on U251 CNS was greater than 100 µM in each case.
`COc1cc(C=C2C(=O)OC(C)(C)OC2=O)cc(OC)c1OC`: the TGI in the assay with 786-0 renal, with A549 NSCLC, in the assay on HCT-116 colon, in the assay with HT29 colon, in the assay with NCI-H23 lung and with OVCAR-8 ovarian was greater than 100 µM each time. The TGI in the assay with RXF 393 renal, with SK-MEL-5 melanoma, in the assay with SK-OV-3 ovarian and in the assay with U251 CNS was greater than 100 µM each time.
`COc1ccc2c(c1)Cc1cc(N=[N+]([O-])c3ccc4c(c3)Cc3cc(OC)ccc3-4)ccc1-2`: the TGI was greater than 100 µM in the assay with 786-0 renal; greater than 100 µM in the assay on A549 NSCLC; greater than 100 µM in the assay on HCT-116 colon; 32.9 µM with HT29 colon; greater than 100 µM with NCI-H23 lung; greater than 100 µM with OVCAR-8 ovarian. For the same molecule, the TGI in the assay with RXF 393 renal is greater than 100 µM; in the assay on SK-MEL-5 melanoma it was 42.8 µM; in the assay with SK-OV-3 ovarian, greater than 100 µM; in the assay on U251 CNS, 30.8 µM.
Take `O=C(Nc1ccc(Cl)cc1Cl)c1c/c(=N\O)c2ccc(O)cc2o1`: the TGI in the assay with 786-0 renal, with A549 NSCLC, in the assay on HCT-116 colon, with HT29 colon, in the assay on NCI-H23 lung and in the assay on OVCAR-8 ovarian was greater than 100 µM each time. The TGI with RXF 393 renal, in the assay with SK-MEL-5 melanoma, with SK-OV-3 ovarian and in the assay on U251 CNS was greater than 100 µM in each case.

The values above are taken from PubChem BioAssay (NCI).
